Paper PMC5448077, “Development of an orally available inhibitor of CLK1 for skipping a mutated dystrophin exon in Duchenne muscular dystrophy” (Scientific Reports, 2017)

Columns and labels:
Assay in all cases: biochemical
[1] = molecular target: T1, MER (Homo sapiens, UniProt Q12866)
T1 construct: gene MERTK
Outline: (§1)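 Reactions at room temperature in HEPES buffer (20 mM, pH 7.5, 0.01% Triton X-100, 2 mM DTT) lasted 1 or 5 h depending on kinase, with substrate peptide and ATP-metal. Phosphorylation read by electrophoretic mobility shift or IMAP polarization; kinase activity computed as P/(P + S).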

[2] = molecular target: T2, AurB (Homo sapiens, UniProt Q96GD4)
T2 construct: gene AURKB
Outline: as §1

[3] = molecular target: T3, PKCε (Homo sapiens, UniProt Q02156)
T3 construct: gene PRKCE
Outline: as §1

[4] = molecular target: DYRK1B (Homo sapiens, UniProt Q9Y463)
Outline: as §1

[5] = molecular target: KIT(V560G) (Homo sapiens, UniProt P10721, V560G)
Outline: as §1

[6] = molecular target: KIT(D816E) (Homo sapiens, UniProt P10721, D816E)
Outline: as §1

[7] = molecular target: T4, MSSK1 (Homo sapiens, UniProt Q9UPE1)
T4 construct: gene SRPK3
Outline: as §1

[8] = molecular target: T5, FMS (Homo sapiens, UniProt P07333)
T5 construct: gene CSF1R
Outline: as §1

[9] = molecular target: RET (Homo sapiens, UniProt P07949)
Outline: as §1

[10] = molecular target: T6, GSK3β (Homo sapiens, UniProt P49841)
T6 construct: gene GSK3B
Outline: as §1

[11] = molecular target: NuaK1 (Homo sapiens, UniProt O60285)
Outline: as §1

[12] = molecular target: T7, CHK1 (Homo sapiens, UniProt O14757)
T7 construct: gene CHEK1
Outline: as §1

[13] = molecular target: FER (Homo sapiens, UniProt P16591)
Outline: as §1

[14] = molecular target: CDC7/ASK (Homo sapiens, UniProt O00311)
Outline: as §1

[15] = molecular target: AXL (Homo sapiens, UniProt P30530)
Outline: as §1

[16] = molecular target: T8, ABL(E255K) (Homo sapiens, UniProt P00519, E255K)
T8 construct: gene ABL1
Outline: as §1

[17] = molecular target: T9, HER2 (Homo sapiens, UniProt P04626)
T9 construct: gene ERBB2
Outline: as §1

[18] = molecular target: T10, TSSK1 (Homo sapiens, UniProt Q9BXA7)
T10 construct: gene TSSK1B
Outline: as §1

[19] = molecular target: SGK3 (Homo sapiens, UniProt Q96BR1)
Outline: as §1

[20] = molecular target: PAK2 (Homo sapiens, UniProt Q13177)
Outline: as §1

[21] = molecular target: FLT1 (Homo sapiens, UniProt P17948)
Outline: as §1

[22] = molecular target: ALK (Homo sapiens, UniProt Q9UM73)
Outline: as §1

[23] = molecular target: FGFR4 (Homo sapiens, UniProt P22455)
Outline: as §1

[24] = molecular target: HCK (Homo sapiens, UniProt P08631)
Outline: as §1

[25] = molecular target: DYRK2 (Homo sapiens, UniProt Q92630)
Outline: as §1

[26] = molecular target: IGF1R (Homo sapiens, UniProt P08069)
Outline: as §1

[27] = molecular target: TBK1 (Homo sapiens, UniProt Q9UHD2)
Outline: as §1

[28] = molecular target: RET(M918T) (Homo sapiens, UniProt P07949, M918T)
Outline: as §1

[29] = molecular target: DYRK1A (Homo sapiens, UniProt Q13627)
Outline: as §1

[30] = molecular target: T11, ACK (Homo sapiens, UniProt Q07912)
T11 construct: gene TNK2
Outline: as §1

[31] = molecular target: PIK3CA/PIK3R1 (Homo sapiens, UniProt P42336)
Outline: as §1

T10 sequence (Q9BXA7 whole entry): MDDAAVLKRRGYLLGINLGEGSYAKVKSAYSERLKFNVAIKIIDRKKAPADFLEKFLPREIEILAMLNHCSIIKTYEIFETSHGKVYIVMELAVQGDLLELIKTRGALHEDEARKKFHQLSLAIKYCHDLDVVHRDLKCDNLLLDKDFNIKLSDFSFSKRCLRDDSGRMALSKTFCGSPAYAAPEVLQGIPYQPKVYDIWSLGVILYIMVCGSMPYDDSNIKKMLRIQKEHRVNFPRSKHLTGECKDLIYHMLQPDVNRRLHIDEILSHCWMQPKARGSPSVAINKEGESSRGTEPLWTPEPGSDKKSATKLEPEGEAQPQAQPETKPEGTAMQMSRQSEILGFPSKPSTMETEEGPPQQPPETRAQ
RET(M918T), sequence (P07949 whole entry M918T): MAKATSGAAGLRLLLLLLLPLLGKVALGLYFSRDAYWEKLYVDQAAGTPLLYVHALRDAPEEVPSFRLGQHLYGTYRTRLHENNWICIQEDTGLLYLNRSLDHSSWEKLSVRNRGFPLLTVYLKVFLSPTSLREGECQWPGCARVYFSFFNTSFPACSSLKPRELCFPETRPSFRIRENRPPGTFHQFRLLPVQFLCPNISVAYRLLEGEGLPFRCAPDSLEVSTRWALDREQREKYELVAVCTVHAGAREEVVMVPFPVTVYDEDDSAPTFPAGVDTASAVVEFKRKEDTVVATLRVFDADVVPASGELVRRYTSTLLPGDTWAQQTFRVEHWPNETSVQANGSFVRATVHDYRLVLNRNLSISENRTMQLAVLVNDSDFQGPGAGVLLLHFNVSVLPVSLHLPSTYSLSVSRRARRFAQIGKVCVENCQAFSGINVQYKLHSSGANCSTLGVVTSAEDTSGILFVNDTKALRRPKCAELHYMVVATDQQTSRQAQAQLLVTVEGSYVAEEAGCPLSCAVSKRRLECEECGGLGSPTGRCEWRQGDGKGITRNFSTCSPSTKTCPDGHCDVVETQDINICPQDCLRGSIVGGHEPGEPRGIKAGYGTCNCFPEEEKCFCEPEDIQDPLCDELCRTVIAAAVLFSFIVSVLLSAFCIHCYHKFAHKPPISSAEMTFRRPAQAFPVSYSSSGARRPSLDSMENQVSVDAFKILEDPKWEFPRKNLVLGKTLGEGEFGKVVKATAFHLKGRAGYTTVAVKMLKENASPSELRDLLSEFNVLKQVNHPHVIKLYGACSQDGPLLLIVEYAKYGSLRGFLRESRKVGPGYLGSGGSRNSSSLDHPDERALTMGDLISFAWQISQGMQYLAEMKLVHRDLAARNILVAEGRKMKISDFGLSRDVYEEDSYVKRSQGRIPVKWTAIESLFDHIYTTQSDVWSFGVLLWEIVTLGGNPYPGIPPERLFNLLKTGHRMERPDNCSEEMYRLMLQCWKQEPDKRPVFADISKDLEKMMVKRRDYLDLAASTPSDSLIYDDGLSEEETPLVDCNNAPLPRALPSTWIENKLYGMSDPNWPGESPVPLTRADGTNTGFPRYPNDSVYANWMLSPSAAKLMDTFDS
T7 sequence (O14757 whole entry): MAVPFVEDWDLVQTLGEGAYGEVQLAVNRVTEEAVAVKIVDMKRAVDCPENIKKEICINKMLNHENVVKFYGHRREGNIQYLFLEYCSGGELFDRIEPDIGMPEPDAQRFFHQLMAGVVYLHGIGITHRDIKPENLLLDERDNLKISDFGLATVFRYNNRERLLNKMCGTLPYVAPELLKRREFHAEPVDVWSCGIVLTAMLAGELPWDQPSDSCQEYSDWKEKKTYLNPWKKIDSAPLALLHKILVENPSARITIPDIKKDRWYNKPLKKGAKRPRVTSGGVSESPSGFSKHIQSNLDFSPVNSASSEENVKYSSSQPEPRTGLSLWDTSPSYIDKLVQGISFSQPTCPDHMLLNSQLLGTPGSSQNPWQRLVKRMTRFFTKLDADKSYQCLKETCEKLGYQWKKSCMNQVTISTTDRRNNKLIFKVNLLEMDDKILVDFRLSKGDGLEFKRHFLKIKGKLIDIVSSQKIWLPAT
T8 sequence (P00519 whole entry E255K): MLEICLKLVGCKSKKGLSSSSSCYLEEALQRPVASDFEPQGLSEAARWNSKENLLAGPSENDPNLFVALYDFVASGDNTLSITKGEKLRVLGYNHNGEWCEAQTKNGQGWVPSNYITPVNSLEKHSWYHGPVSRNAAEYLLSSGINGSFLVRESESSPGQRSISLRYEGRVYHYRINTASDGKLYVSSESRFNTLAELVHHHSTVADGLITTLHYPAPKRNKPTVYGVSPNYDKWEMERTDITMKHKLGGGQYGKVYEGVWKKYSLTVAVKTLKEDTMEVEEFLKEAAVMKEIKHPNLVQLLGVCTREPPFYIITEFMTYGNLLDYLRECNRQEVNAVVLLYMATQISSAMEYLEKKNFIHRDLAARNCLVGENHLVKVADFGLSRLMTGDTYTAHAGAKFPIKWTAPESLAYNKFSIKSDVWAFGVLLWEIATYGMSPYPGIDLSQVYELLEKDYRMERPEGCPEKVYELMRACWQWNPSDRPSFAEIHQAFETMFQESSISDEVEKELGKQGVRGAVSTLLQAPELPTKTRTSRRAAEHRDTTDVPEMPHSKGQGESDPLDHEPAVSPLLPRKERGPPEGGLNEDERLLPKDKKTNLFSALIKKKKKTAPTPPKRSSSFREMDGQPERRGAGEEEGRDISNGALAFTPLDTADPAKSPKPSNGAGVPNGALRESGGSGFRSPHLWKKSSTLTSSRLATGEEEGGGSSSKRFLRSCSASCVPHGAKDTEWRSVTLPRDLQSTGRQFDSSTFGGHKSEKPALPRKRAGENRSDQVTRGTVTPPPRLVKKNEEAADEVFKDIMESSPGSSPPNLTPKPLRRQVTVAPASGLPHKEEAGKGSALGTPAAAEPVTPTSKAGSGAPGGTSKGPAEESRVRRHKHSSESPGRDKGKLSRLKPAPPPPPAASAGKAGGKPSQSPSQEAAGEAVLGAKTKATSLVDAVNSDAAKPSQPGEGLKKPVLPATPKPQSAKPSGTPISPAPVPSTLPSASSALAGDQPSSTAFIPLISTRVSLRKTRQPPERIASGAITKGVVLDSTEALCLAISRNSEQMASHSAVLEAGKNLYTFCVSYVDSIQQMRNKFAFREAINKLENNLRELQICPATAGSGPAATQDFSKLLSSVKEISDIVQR
HCK, sequence (P08631 whole entry): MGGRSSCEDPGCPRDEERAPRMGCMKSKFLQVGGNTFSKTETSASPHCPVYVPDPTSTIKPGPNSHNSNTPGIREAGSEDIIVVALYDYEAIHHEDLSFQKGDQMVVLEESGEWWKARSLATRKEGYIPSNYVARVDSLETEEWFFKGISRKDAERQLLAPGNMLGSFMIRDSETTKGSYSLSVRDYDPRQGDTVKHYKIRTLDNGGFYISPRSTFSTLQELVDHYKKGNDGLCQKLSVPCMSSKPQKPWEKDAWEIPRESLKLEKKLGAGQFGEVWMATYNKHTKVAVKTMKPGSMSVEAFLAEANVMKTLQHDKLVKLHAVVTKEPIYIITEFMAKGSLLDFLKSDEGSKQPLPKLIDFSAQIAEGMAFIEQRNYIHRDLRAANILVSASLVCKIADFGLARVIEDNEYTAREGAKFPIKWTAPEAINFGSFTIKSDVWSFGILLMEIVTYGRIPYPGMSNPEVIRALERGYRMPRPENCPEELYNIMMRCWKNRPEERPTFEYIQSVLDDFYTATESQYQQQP
SGK3, sequence (Q96BR1 whole entry): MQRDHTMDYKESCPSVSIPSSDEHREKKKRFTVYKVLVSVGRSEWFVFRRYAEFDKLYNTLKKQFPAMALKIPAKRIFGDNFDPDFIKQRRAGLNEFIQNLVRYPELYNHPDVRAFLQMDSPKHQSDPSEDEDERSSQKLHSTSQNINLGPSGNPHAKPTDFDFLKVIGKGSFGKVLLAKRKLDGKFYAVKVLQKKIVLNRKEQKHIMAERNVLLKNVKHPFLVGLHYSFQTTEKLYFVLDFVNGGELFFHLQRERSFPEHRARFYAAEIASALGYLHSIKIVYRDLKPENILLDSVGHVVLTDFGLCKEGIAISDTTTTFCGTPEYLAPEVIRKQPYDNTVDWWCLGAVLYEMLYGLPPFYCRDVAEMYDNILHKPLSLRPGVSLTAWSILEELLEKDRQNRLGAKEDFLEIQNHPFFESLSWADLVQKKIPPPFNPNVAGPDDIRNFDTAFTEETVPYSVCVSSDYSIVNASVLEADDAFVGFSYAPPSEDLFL
T2 sequence (Q96GD4 whole entry): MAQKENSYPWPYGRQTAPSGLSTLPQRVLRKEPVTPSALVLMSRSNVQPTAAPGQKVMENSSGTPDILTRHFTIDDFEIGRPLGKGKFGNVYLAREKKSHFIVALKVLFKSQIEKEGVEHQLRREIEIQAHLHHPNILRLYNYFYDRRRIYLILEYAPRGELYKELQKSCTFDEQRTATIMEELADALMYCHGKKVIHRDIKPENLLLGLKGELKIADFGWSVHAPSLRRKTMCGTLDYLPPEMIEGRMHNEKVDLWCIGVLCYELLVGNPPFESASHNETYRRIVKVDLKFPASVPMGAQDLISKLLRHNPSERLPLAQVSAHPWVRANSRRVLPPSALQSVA
RET, sequence (P07949 whole entry): as the sequence (P07949 whole entry M918T) above, with T918M counted along it
T6 sequence (P49841 whole entry): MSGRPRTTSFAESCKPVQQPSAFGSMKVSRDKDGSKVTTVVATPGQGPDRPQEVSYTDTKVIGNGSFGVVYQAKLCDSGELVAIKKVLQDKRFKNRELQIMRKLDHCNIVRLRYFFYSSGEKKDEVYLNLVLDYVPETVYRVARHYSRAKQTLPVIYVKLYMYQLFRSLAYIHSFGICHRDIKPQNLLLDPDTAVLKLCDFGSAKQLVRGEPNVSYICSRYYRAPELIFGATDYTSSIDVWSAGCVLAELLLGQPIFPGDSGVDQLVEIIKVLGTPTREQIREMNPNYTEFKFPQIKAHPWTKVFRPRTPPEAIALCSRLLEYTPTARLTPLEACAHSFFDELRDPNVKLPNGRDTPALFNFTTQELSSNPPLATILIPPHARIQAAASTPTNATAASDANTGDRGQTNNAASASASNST

**Q.** With `c1cc(-c2ccc3[nH]ncc3c2)ccn1` [TG693, 5-(4-pyridinyl)-1H-indazole] as the compound, how does the inhibition at 1 µM [1] read?
**A.** The inhibition at 1 µM was 3%.

**Q.** What about the inhibition at 1 µM [2] of the same compound?
**A.** Its inhibition at 1 µM is 6.1%.

**Q.** And the inhibition at 1 µM [3]?
**A.** The inhibition at 1 µM was 12.3%.

**Q.** And the inhibition at 1 µM [4]?
**A.** The inhibition at 1 µM was 76.1%.

**Q.** And the inhibition at 1 µM [5]?
**A.** The inhibition at 1 µM was -2.6%.

**Q.** What about the inhibition at 1 µM [6] of the same compound?
**A.** The inhibition at 1 µM was -6.8%.

**Q.** What about the inhibition at 1 µM [7] of the same compound?
**A.** Its inhibition at 1 µM is -7.3%.

**Q.** What about the inhibition at 1 µM [8] of the same compound?
**A.** Its inhibition at 1 µM is 2.6%.

**Q.** What about the inhibition at 1 µM [9] of the same compound?
**A.** The inhibition at 1 µM was 4.8%.

**Q.** And the inhibition at 1 µM [10]?
**A.** The inhibition at 1 µM was 8.5%.

**Q.** What about the inhibition at 1 µM [11] of the same compound?
**A.** The inhibition at 1 µM was 7.5%.

**Q.** And the inhibition at 1 µM [12]?
**A.** The inhibition at 1 µM was 1.7%.

**Q.** And the inhibition at 1 µM [13]?
**A.** The inhibition at 1 µM was 4.4%.

**Q.** What about the inhibition at 1 µM [14] of the same compound?
**A.** Its inhibition at 1 µM is 10.8%.

**Q.** And the inhibition at 1 µM [15]?
**A.** Its inhibition at 1 µM is 3.5%.

**Q.** What about the inhibition at 1 µM [16] of the same compound?
**A.** Its inhibition at 1 µM is -4.2%.

**Q.** And the inhibition at 1 µM [17]?
**A.** Its inhibition at 1 µM is -3.8%.

**Q.** And the inhibition at 1 µM [18]?
**A.** The inhibition at 1 µM was 3%.

**Q.** What about the inhibition at 1 µM [19] of the same compound?
**A.** Its inhibition at 1 µM is -3.2%.

**Q.** And the inhibition at 1 µM [20]?
**A.** The inhibition at 1 µM was -51.3%.

**Q.** And the inhibition at 1 µM [21]?
**A.** Its inhibition at 1 µM is 5.9%.

**Q.** What about the inhibition at 1 µM [22] of the same compound?
**A.** The inhibition at 1 µM was 6.1%.

**Q.** What about the inhibition at 1 µM [23] of the same compound?
**A.** The inhibition at 1 µM was 4.3%.

**Q.** And the inhibition at 1 µM [24]?
**A.** Its inhibition at 1 µM is -3%.

**Q.** And the inhibition at 1 µM [25]?
**A.** Its inhibition at 1 µM is 77.2%.

**Q.** What about the inhibition at 1 µM [26] of the same compound?
**A.** The inhibition at 1 µM was 3.3%.

**Q.** And the inhibition at 1 µM [27]?
**A.** Its inhibition at 1 µM is 5.8%.

**Q.** And the inhibition at 1 µM [28]?
**A.** Its inhibition at 1 µM is -2.6%.

**Q.** And the inhibition at 1 µM [29]?
**A.** The inhibition at 1 µM was 84.3%.

**Q.** What about the inhibition at 1 µM [30] of the same compound?
**A.** The inhibition at 1 µM was -1.1%.

**Q.** What about the inhibition at 1 µM [31] of the same compound?
**A.** The inhibition at 1 µM was 36.8%.
